Measurements reported in PMC10004157.

| Compound | melting point |
| --- | --- |
| C[C@H](CO)Nc1nc(SCc2cccc(F)c2F)nc2cnc(-n3ccnc3)cc12 [Compound 16b, (2R)-2-[(6-Imidazolyl-2-(2,3-difluorobenzylmercapto)-pyrido[3,4-d]pyrimidine-4-yl)amino]propanol] | 245 to 247 °C |
| Cc1ccc(-c2cc3c(N[C@H](C)CO)nc(SCc4cccc(F)c4F)nc3cn2)o1 [Compound 17c, (2R)-2-[(2-(2,3-Difluorobenzylmercapto)-6-(5-methylfuran-2-yl)-pyrido[3,4-d]pyrimidine-4-yl)amino]propanol] | 162 to 164 °C |
| C[C@H](CO)Nc1nc(SCc2cccc(F)c2F)nc2cnc(-c3ccco3)cc12 [Compound 17b, (2R)-2-[(2-(2,3-Difluorobenzylmercapto)-6-(2-furanyl)-pyrido[3,4-d]pyrimidine-4-yl)amino]propanol] | 163 to 165 °C |
| C[C@H](CO)Nc1nc(SCc2cccc(F)c2F)nc2cnc(Cl)cc12 [Compound 16a, (2R)-2-[(6-Chloro-2-(2,3-difluorobenzylmercapto)-pyrido[3,4-d]pyrimidine-4-yl)amino]propanol] | 211 to 213 °C |
| C[C@H](CO)Nc1nc(SCc2cccc(F)c2F)nc2cncc(Cl)c12 [Compound 9, (2R)-2-[(5-Chloro-2-(2,3-difluorobenzylmercapto)-pyrido[3,4-d]pyrimidine-4-yl)amino]propanol] | 146 to 148 °C |
| C[C@H](CO)Nc1nc(SCc2cccc(F)c2F)nc2cnc(-c3ccccc3)cc12 [Compound 17a, (2R)-2-[(2-(2,3-Difluorobenzylmercapto)-6-phenyl-pyrido[3,4-d]pyrimidine-4-yl)amino]propanol] | 202 to 204 °C |
| C[C@H](CO)Nc1nc(SCc2cccc(F)c2F)nc2cnc(N)cc12 [Compound 21, (2R)-2-[(6-Amino-2-(2,3-difluorobenzylmercapto)-pyrido[3,4-d]pyrimidine-4-yl)amino]propanol] | 174 to 176 °C |
| C[C@H](CO)Nc1nc(SCc2cccc(F)c2F)nc2cnc(-c3cccs3)cc12 [Compound 17d, (2R)-2-[(2-(2,3-Difluorobenzylmercapto)-6-(2-thienyl)-pyrido[3,4-d]pyrimidine-4-yl)amino]propanol] | 176 to 178 °C |

Other lines, results leading:

| melting point | Compound |
| --- | --- |
| 167 to 169 °C | C[C@H](CO)Nc1nc(OCc2cccc(F)c2F)nc2cnccc12 [Compound 26b, (2R)-2-[(2-(2,3-Difluorobenzyloxy)-pyrido[3,4-d]pyrimidine-4-yl)amino]propanol] |
| 181 to 183 °C | OCCNc1nc(SCc2cccc(F)c2F)nc2cnccc12 [Compound 24d, 3-[(2-(2,3-Difluorobenzylmercapto)-pyrido[3,4-d]pyrimidine-4-yl)amino]ethanol] |
| 136 to 140 °C | C[C@H](CO)Nc1nc(NCc2cccc(F)c2F)nc2cnccc12 [Compound 26a, (2R)-2-[(2-(2,3-Difluorobenzylamino)-pyrido[3,4-d]pyrimidine-4-yl)amino]propanol] |
| 182 to 184 °C | C[C@H](CO)Nc1nc(SCCc2ccccc2)nc2cnccc12 [Compound 26d, (2R)-2-[(2-(Phenylethylmercapto)-pyrido[3,4-d]pyrimidine-4-yl)amino]propanol] |
| 147 to 149 °C | CCCCCCSc1nc(N[C@H](C)CO)c2ccncc2n1 [Compound 26e, (2R)-2-[(2-(Hexylmercapto)-pyrido[3,4-d]pyrimidine-4-yl)amino]propanol] |
| 166 to 168 °C | CC(C)(CO)Nc1nc(SCc2cccc(F)c2F)nc2cnccc12 [Compound 24b, 2-[(2-(2,3-Difluorobenzylmercapto)-pyrido[3,4-d]pyrimidine-4-yl)amino]-2-methyl-propan-1-ol] |
| 156 to 158 °C | OCC(O)CNc1nc(SCc2cccc(F)c2F)nc2cnccc12 (stereo not drawn) [Compound 24c, 3-[(2-(2,3-Difluorobenzylmercapto)-pyrido[3,4-d]pyrimidine-4-yl)amino]propan-1,2-diol] |
| 174 to 176 °C | CC[C@H](CO)Nc1nc(SCc2cccc(F)c2F)nc2cnccc12 [Compound 24a, (2R)-2-[(2-(2,3-Difluorobenzylmercapto)-pyrido[3,4-d]pyrimidine-4-yl)amino]butanol] |
| 193 to 196 °C | C[C@H](CO)Nc1nc(Sc2ccccc2)nc2cnccc12 [Compound 26c, (2R)-2-[(2-(Phenylmercapto)-pyrido[3,4-d]pyrimidine-4-yl)amino]propanol] |
| 181 to 183 °C | OCCOc1nc(SCc2cccc(F)c2F)nc2cnccc12 [Compound 24e, 3-[(2-(2,3-Difluorobenzylmercapto)-pyrido[3,4-d]pyrimidine-4-yl)oxy]ethanol] |
